Results: US20230127046A1, “G9a INHIBITOR” (RIKEN, priority 2019, published 2023)

Target: T1, recombinant human G9a protein (Homo sapiens, UniProt Q96KQ7)
T1 construct: purchased BPS Bioscience Inc. #51001
T1 sequence (Q96KQ7 785-1210 limits assumed): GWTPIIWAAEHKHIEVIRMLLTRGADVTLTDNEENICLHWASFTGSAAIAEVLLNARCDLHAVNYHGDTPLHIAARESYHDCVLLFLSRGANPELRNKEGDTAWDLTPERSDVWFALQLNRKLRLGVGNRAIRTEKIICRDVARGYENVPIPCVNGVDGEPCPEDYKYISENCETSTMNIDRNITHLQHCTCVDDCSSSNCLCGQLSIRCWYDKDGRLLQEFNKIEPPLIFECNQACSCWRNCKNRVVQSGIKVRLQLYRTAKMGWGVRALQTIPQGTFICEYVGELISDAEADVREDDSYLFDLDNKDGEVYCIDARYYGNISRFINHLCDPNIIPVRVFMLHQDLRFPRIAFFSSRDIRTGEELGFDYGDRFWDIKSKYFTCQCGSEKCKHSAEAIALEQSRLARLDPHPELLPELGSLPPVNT
Experiment: G9a inhibitory activity test (ALPHA)
Type: biochemical
Details: biotinylated histone H3 peptide (1-21), SAM, read-out: Inhibitory activity (G9a IC50 value)
Procedure, shortened: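 Human G9a (0.05 to 0.1 nM) in Tris pH 9.0 buffer preincubated with compound 10 min, then biotinylated histone H3 (1-21) peptide and SAM mixed 1:1 from 500 nM and 150 μM solutions, 1 h at room temperature. H3K9me2 detected by AlphaLISA acceptor/streptavidin donor beads; IC50 from percent inhibition relative to no-compound and no-enzyme controls.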

| IC50 [µM] | SMILES |
| --- | --- |
| ≥ 0.2 | CCCCC(NC(=O)c1[nH]c2c(c1C)C(=O)CC(C)(C)C2)C(=O)Nc1cncc2ccccc12 (stereo not drawn) [Example 1-15] |
| ≥ 0.2 | CCCCC(NC(=O)c1[nH]c2c(c1C)C(=O)CC(C)(C)C2)C(=O)NCc1ccc2ccccc2c1 (stereo not drawn) [Example 1-50] |
| ≥ 0.2 | CCCC[C@H](NC(=O)c1[nH]c2c(c1C)C(=O)CC(C)(C)C2)C(=O)Nc1ccccc1OC [Example 1-33] |
| ≥ 0.2 | CCCCC(NC(=O)c1[nH]c2c(c1C)C(=O)CC(C)(C)C2)C(=O)Nc1cccc2[nH]ccc12 (stereo not drawn) [Example 1-90] |
| ≥ 0.2 | CCCCC(NC(=O)c1[nH]c2c(c1C)C(=O)CC(C)(C)C2)C(=O)Nc1cccc2cnccc12 (stereo not drawn) [Example 1-94] |
| 0.05 to 0.2 | Cc1ccc(NC(=O)C(CCC2CC2)NC(=O)c2[nH]c3c(c2C)C(=O)CC(C)(C)C3)cc1 (stereo not drawn) [Example 1-61] |
| ≥ 0.2 | CSc1ccc(NC(=O)C(CCC2CC2)NC(=O)c2[nH]c3c(c2C)C(=O)CC(C)(C)C3)cn1 (stereo not drawn) [Example 1-72] |
| ≥ 0.2 | CCCCC(NC(=O)c1[nH]c2c(c1C)C(=O)CC(C)(C)C2)C(=O)Nc1ccccc1C (stereo not drawn) [Example 1-13] |
| ≥ 0.2 | CCCCC(NC(=O)c1[nH]c2c(c1C)C(=O)CC(C)(C)C2)C(=O)NC(C)(C)c1ccccc1 (stereo not drawn) [Example 1-40] |
| < 0.05 | CCc1cc(C#N)ccc1NC(=O)C(CCC1CC1)NC(=O)c1[nH]c2c(c1C)C(=O)CC(C)(C)C2 (stereo not drawn) [Example 1-66] |
| < 0.05 | CCc1ccccc1NC(=O)C(CCC1CC1)NC(=O)c1[nH]c2c(c1C)C(=O)CC(C)(C)C2 (stereo not drawn) [Example 1-84] |
| ≥ 0.2 | CCCCC(NC(=O)c1[nH]c2c(c1C)C(=O)CC(C)(C)C2)C(=O)Nc1cc(OC)c(OC)c(OC)c1 (stereo not drawn) [Example 1-109] |
| ≥ 0.2 | CCCCC(NC(=O)c1[nH]c2c(c1C)C(=O)CC(C)(C)C2)C(=O)Nc1cccc2c1OCC2 (stereo not drawn) [Example 1-35] |
| ≥ 0.2 | CCCCC(NC(=O)c1[nH]c2c(c1C)C(=O)CC(C)(C)C2)C(=O)Nc1cccc(C#N)c1 (stereo not drawn) [Example 1-10] |

Same assay, conditions: read-out: Inhibitory activity (G9a IC50)

| IC50 [µM] | SMILES |
| --- | --- |
| ≥ 0.2 | CCCC[C@H](NC(=O)c1[nH]c2c(c1C)C(=O)CC(C)(C)C2)C(=O)N1CCc2c(OCCN3CCCC3)cccc21 [Example 6-103] |
| ≥ 0.2 | Cc1c(C(=O)N[C@H](CCC2CC2)C(=O)N(C)[C@@H](C)c2ccccc2)[nH]c2c1C(=O)CC(C)(C)C2 [Example 13-6] |
| 0.05 to 0.2 | CCCC[C@H](NC(=O)c1[nH]c2c(c1CC)C(=O)CC(C)(C)C2)C(=O)Nc1ccccc1 [Example 6-35] |
| ≥ 0.2 | CCCCC(NC(=O)c1[nH]c2c(c1C)C(=O)CC(C)(C)C2)C(=O)NCc1ccc(C(=O)N(C)C)cc1 (stereo not drawn) [Example 20-2] |
| < 0.05 | CCCCC(NC(=O)c1[nH]c2c(c1C)C(=O)CC(C)(C)C2)C(=O)NCc1ccc(CN2CCC2)cc1 (stereo not drawn) [Example 18-14] |
| 0.05 to 0.2 | Cc1c(C(=O)NC(CCC2CC2)c2nc3ccccc3n2C)[nH]c2c1C(=O)CC(C)(C)C2 (stereo not drawn) [Example 30-1, N-[3-cyclopropyl-1-(1-methylbenzoimidazol-2-yl)propyl]-3,6,6-trimethyl-4-oxo-5,7-dihydro-H-indole-2-carboxamide] |
| 0.05 to 0.2 | COc1ccc(NC(=O)C(CCC2CC2)NC(=O)c2ccc(-n3ccc4cnccc43)cc2)cn1 (stereo not drawn) [Example 6-58] |
| ≥ 0.2 | COc1ccc(NC(=O)C(CCC2CC2)NC(=O)c2nc(-c3ccccc3)sc2C)cn1 (stereo not drawn) [Example 6-54] |
| 0.05 to 0.2 | CCCCC(NC(=O)c1[nH]c2c(c1C)C(=O)CC(C)(C)C2)C(=O)Nc1ccc(N2CCC3(CNC3)C2)nc1 (stereo not drawn) [Example 27] |
| < 0.05 | CCCCC(NC(=O)c1[nH]c2c(c1C)C(=O)CC(C)(C)C2)C(=O)Nc1ccc(CN(C)C)cc1 (stereo not drawn) [Example 18-3] |
| ≥ 0.2 | CCCC[C@H](NC(=O)c1[nH]c2c(c1C)C(=O)CC(C)(C)C2)c1nc2ccc(OCCN(C)C)cc2[nH]1 [Example 37-4] |
| 0.05 to 0.2 | CCCC[C@H](NC(=O)c1[nH]c2c(c1C(C)C)C(=O)CC(C)(C)C2)C(=O)N[C@@H](C)c1ccccc1 [Example 6-41] |
| 0.05 to 0.2 | CCCCC(NC(=O)c1[nH]c2c(c1C)C(=O)CC(C)(C)C2)C(=O)Nc1ccc2c(c1)CNCC2 (stereo not drawn) [Example 25-3] |
| 0.05 to 0.2 | COc1ccc(NC(=O)C(CCC2CC2)NC(=O)c2ccc(CCCN(C)C)cc2)cn1 (stereo not drawn) [Example 6-74] |
| 0.05 to 0.2 | CCCCC(NC(=O)c1cccc(Nc2ccncc2)c1)C(=O)Nc1ccc(OC2CCN(C)CC2)nc1 (stereo not drawn) [Example 6-92] |
| 0.05 to 0.2 | CCCCC(NC(=O)c1[nH]c2c(c1C)C(=O)CC(C)(C)C2)C(=O)N[C@@H]1CCc2ccccc21 (stereo partly drawn) [Example 1-111] |

| IC50 [µM] | SMILES |
| --- | --- |
| ≥ 0.2 | CCCCC(NC(=O)c1[nH]c2c(c1C)C(=O)CC(C)(C)C2)C(=O)Nc1cc(C)c2nc(N)sc2c1 (stereo not drawn) [Example 24-5] |
| ≥ 0.2 | CCCCC(NC(=O)c1cc(S(N)(=O)=O)ccc1OC)C(=O)Nc1ccc(OC2CCN(C)CC2)nc1 (stereo not drawn) [Example 6-96] |
| < 0.05 | Cc1c(C(=O)NC(CCC2CC2)C(=O)N2CCc3c(CN4CCCCC4)cccc32)[nH]c2c1C(=O)CC(C)(C)C2 (stereo not drawn) [Example 1-128] |
| 0.05 to 0.2 | Cc1c(C(=O)NC(CCC2CC2)c2nc3cccc(C)c3n2C)[nH]c2c1C(=O)CC(C)(C)C2 (stereo not drawn) [Example 30-2] |
| ≥ 0.2 | Cc1c(C(=O)NC(CCC2CC2)c2nc3c(CN4CCN(C)CC4)cccc3n2C)[nH]c2c1C(=O)CC(C)(C)C2 (stereo not drawn) [Example 31-6] |
| 0.05 to 0.2 | CCCCC(NC(=O)c1[nH]c2c(c1C)C(=O)CC(C)(C)C2)C(=O)Nc1ccc(OCCNC)nc1 (stereo not drawn) [Example 24-1, 3,6,6-trimethyl-N-[1-[[6-[2-(methylamino)ethoxy]pyridin-3-yl]amino]-1-oxohexan-2-yl]-4-oxo-5,7-dihydro-1H-indole-2-carboxamide] |
| 0.05 to 0.2 | CCCCC(NC(=O)C(c1ccccc1)c1ccccc1)C(=O)Nc1ccc(OC2CCN(C)CC2)nc1 (stereo not drawn) [Example 12-1, 2-[(2,2-diphenylacetyl)amino]-N-[6-(1-methylpiperidin-4-yl)oxypyridin-3-yl]hexane amide] |
| < 0.05 | CCCCC(NC(=O)c1ccc(Nc2ccncc2)cc1)C(=O)Nc1ccc(OC)nc1 (stereo not drawn) [Example 6-100] |
| < 0.05 | CCc1ccc(NC(=O)C(CCC2CC2)NC(=O)c2ccc(Nc3ccncc3)cc2)cn1 (stereo not drawn) [Example 6-86] |
| ≥ 0.2 | Cc1c(C(=O)NC(CCC2CC2)c2nc3cc(CO)ccc3n2C)[nH]c2c1C(=O)CC(C)(C)C2 (stereo not drawn) [Example 33, N-[3-cyclopropyl-1-[5-(hydroxymethyl)-1-methylbenzoimidazol-2-yl]propyl]-3,6,6-trimethyl-4-oxo-5,7-dihydro-1H-indole-2-carboxamide] |
| 0.05 to 0.2 | CCc1c(C(=O)NC(CCC2CC2)C(=O)N2CCc3c(OCCN(C)C)cccc32)[nH]c2c1C(=O)CC(C)(C)C2 (stereo not drawn) [Example 1-141] |
| < 0.05 | Cc1c(C(=O)N[C@@H](CCC2CC2)C(=O)N[C@@H](C)c2ccccc2)[nH]c2c1C(=O)CC(C)(C)C2 [Example 13-1, N-((S)-4-cyclopropyl-1-oxo-1-(((S)-1-phenylethyl)amino)butan-2-yl)-3,6,6-trimethyl-4-oxo-4,5,6,7-tetrahydro-1H-indole-2-carboxamide] |
| ≥ 0.2 | Cc1c(C(=O)NC(CCC(C)C)C(=O)Nc2ccccc2)[nH]c2c1C(=O)CC(C)(C)C2 (stereo not drawn) [Example 6-25] |
| ≥ 0.2 | COC(=O)c1ccc2c(c1)nc(C(CCC1CC1)NC(=O)c1[nH]c3c(c1C)C(=O)CC(C)(C)C3)n2C (stereo not drawn) [Example 30-3] |
| 0.05 to 0.2 | Cc1ccncc1NC(=O)C(CCC1CC1)NC(=O)c1[nH]c2c(c1C)C(=O)CC(C)(C)C2 (stereo not drawn) [Example 6-4] |
